Source: patent US20130225412A1, “SILICON NANOCARRIER FOR DELIVERY OF DRUG, PESTICIDES AND HERBICIDES , AND FOR WASTE WATER TREATMENT” (priority 2012, published 2013)

Test: Release from loaded diatomaceous earth measured by Nano Drop spectrophotometer
Format: physicochemical
Details: for start of release after loading / time of peak release: release pattern measured by NanoDrop
Description: According to embodiments herein, the diatom structure and drug loading capacity can vary for different kind of medicines. For example for anticancer Fluorouracil (5-FU or f5U) a master mix of 50 mg/ml was prepared. 0.8 ml of this master mix was added to 200 ml pure ethanol. 0.6 g diatomaceous earth (diatom cell wall) was added to this mixture and was left to be stirred for 3 hours with 200 rpm. Finally after filtration, diatom cell wall was washed once with methanol. 12 hours later at room temperature diatom cell wall were dried and loaded with Fluorouracil (5-FU or f5U).
Final concentration of 200 mg/ml of Gallic acid in Methanol/Diatomaceous Earth was prepared. To ensure that none of the Gallic acid was left on the outer surface of nano silicon, it washed by Methanol. After his, its release in water by interval of 2 hours was measured at the wavelength of 270 nm.
Evaluation of Benomyl fungicide release by nano Drop Spectrophotometer: Material and methods were identically same as Gallic Acid. After measuring all ODs, release calibration curve was drawn. […] With respect to FIG. 5, it is seen that the Benomyl releases after 12 hours of loading and gets to its peak release after 40 hours and the release decreases sharply. This is a kind of controlled release.
5-flouracil release pattern by nano Drop Spectrophotometer was evaluated. […] With respect to FIG. 6, it can be seen that the drug 5-Florouracil releases after 8 hours from the loading starts and 16 hours after gets peak release and then fall of gradually. This is a kind of controlled release.
Progesterone release pattern by nano Drop Spectrophotometer was evaluated.

| SMILES | start of release after loading [h] | time of peak release [h] | release in water (loaded in Diatomaceous Earth, washed by Methanol) | optical density (ODs) measures (release in water, interval of 2 hours, wavelength 270 nm, loaded in Diatomaceous Earth) |
| --- | --- | --- | --- | --- |
| O=c1[nH]cc(F)c(=O)[nH]1 [fluorouracil] | 8 | 16 | – | – |
| CC(=O)[C@H]1CC[C@H]2[C@@H]3CCC4=CC(=O)CC[C@]4(C)[C@H]3CC[C@]12C [Progesterone] | 4 | 28 | – | – |
| O=C(O)c1cc(O)c(O)c(O)c1 [Gallic acid] | – | – | none of the Gallic acid has been released in water | zero |
| CCCCNC(=O)n1c(NC(=O)OC)nc2ccccc21 [Benomyl] | 12 | 40 | – | – |
